Measured values reported in US9186321B2 (SUDA LIMITED, priority 2011, dated 2015).
Counter-ions that a name gives are not always drawn.

Assay: Overall tolerability in the relative bioavailability study
Type: in vivo, human
Details: doses of 10 mg, 20 mg, 30 mg and single oral dose of 25 mg (1×25 mg tablet); healthy adult subjects under fed conditions
Description: Assessments include evaluation of changes in orthostatic hypotension, oral irritation, vital sign assessments, 12-lead electrocardiogram (ECG), and clinical assessments.
After dosing, the following activities were completed: • Both objective and subjective oral irritation assessments were performed immediately after dosing and at one hour after dose administration. • A fast was maintained until at least four hours after dosing. During the study confinement period, fluid consumption resumed no sooner than one hour after dose administration. […] Day 2 • Blood sample collections were obtained as per the profile. • Supine and standing blood pressure and heart rate was measured at approximately 24 hours after each dose. • All subjects were evaluated for the presence of any adverse events prior to release from the study site. • Prior to release, subjects were evaluated to ensure it was safe for them to be released from the study site. • Subjects were released from the study site at approximately 24 hours after dose administration. […]

SMILES: CCCc1nn(C)c2c(=O)[nH]c(-c3cc(S(=O)(=O)N4CCN(C)CC4)ccc3OCC)nc12 [sildenafil citrate]
- tolerability: well tolerated
